Test results taken from patent publication US20150224164A1, “TREATMENT OF AUTISM SPECTRUM DISORDERS USING GLYCYL-L-2-METHYLPROLYL-L-GLUMATIC ACID” (Neuren Pharmaceuticals Limited, priority 2013, published 2015).
Where a SMILES comes first, the peptide text is derived from it.

Legend:
fmr1 knockout mice [1] = test: Open field test, fmr1 knockout mice; assay type: in vivo, mouse; conditions: 100 mg/kg i.p. 28 days
Experimental: 1. fmr1 KO+Vehicle (saline) 2. Wt+Vehicle (saline) 3. fmr1 KO+G-2-MePE (100 mg/kg in saline) 4. Wt+G-2-MePE (100 mg/kg in saline).
G-2-MePE was administered at the dose of 100 mg/kg i.p. in 0.1 ml saline, once daily for 28 days. Vehicle-treated animals were injected with 0.1 ml saline daily for 28 days. Thereafter, drug or vehicle treatments were stopped and animals were tested on successive days until all tests were completed. Finally, the animals were sacrificed for determining expression of pAkt and pERK
The open field is a grey PVC enclosed arena 50×30 cm divided into 10 cm squares. Mice were brought to the experimental room 5-20 min before testing. A mouse was placed into a corner square facing the corner and observed for 3 min. The number of squares entered (whole body) and rears (both front paws off the ground, but not as part of grooming) were counted. The latency to the first rearing (rear) was also noted. The movement of the mouse around the field was recorded with a video tracking device for 300 s (vNT4.0, Viewpoint). The latency for the mouse to enter the brightest, central part of the field total time spent in this central region, and total activity (in terms of path length in centimeters), were recorded in each trial, the initial exposure, 10 min after the initial exposure and 24 h after the initial exposure.
During exposure to the open field chamber mice habituated to the environment and thus explored less, decreasing the amount movement shown over time. Movement and rearing were recorded during the 3 exposures. Failures to reduce locomotion or rearing at 10 minutes and 24 hours indicated deficits in short and long term memory, respectively.

MeCP2-/y mice = test: Life span (Example 10); assay type: in vivo, mouse; conditions: 20 mg/kg i.p. daily from P15; vs MeCP2 KO littermates
Experimental: For the survival measurements, the nocturnal activity analysis and the immunoblot analysis, G-2-MePE (synthesised Albany Molecular Research Inc. (Albany, N.Y.) and supplied by Neuren Pharmaceuticals Limited) is administered daily via intra-peritoneal injections (20 mg/kg, vehicle=saline, 0.01% BSA). The treatment starts at P15 and is maintained throughout the course of the experiments. For intracellular physiology experiments, the mice are injected daily with G-2-MePE (20 mg/kg body weight, vehicle=saline, 0.01% BSA) for 2 weeks, from P15 to P28-P32 when they are used for acute slice preparation. For optical imaging experiments, mice are injected with G-2-MePE (20 mg/kg body weight, vehicle=saline, 0.01% BSA) daily from the day of the lid suture to the day of imaging.

fmr1 knockout mice [2] = test: Species typical behaviors: marble burying and nest building; assay type: in vivo, mouse; conditions: 100 mg/kg i.p. 28 days
[3] = tested on: fmr1 KO hippocampal neurons; test: Dendritic spine density in hippocampal primary cell cultures (microfluidic chamber, GFP); assay type: cell-based, mouse; conditions: 0.5 nM, n=3 independent experiments
Experimental: Hippocampal cell cultures were prepared from wild-type and fmr1 KO foetal mice (14-16 d of gestation). After 3d in vitro, green fluorescent protein (GFP) was used to monitor dendritic spine density during time-course of culture (Ethell and Yamaguchi, 1999; Ethell et al., 2001, Henkemeyer et al., 2003). Dendritic spines are usually formed between 7 and 14 days in vitro (DIV). By 14 DIV most dendritic protrusions are spines. We evaluated the effect of G-2-MePE, a positive control (the mGluR5 antagonist 2-methyl-6-(phenylethynyl)-pyridine or MPEP) and vehicle controls on dendritic spine density in fmr1 KO and WT hippocampal primary cell cultures. Fmr1 KO and wild-type cultures were treated at 17 DIV.
We used the compartmentalized culture system, a microfluidic chamber (see FIG. 31A) which opens the possibility for fast drug testing with the capacity to detect in vitro drug effects such as spine morphology, neurite outgrowth and synapse formation. The treated and untreated neurons in the compartmentalized chambers can be also being use for western blot analysis. The compartmentalised culture is a new approach to evaluate the effect of drugs on anterograde and retrograde transport of messengers and proteins relevant to FXS. Other new possibility that offers this approach its access into exclusive axon compartment, in this area immunodetection and treatments are also possible. […]

## C[C@@]1(C(=O)N[C@@H](CCC(=O)O)C(=O)O)CCCN1C(=O)CN [Example G-2-MePE, Glycyl-L-2-methylprolyl-L-glutamic acid] (HELM PEPTIDE1{G.[C[C@@]1(C(=O)[*:2])CCCN1[*:1]].E}$$$$V2.0)
fmr1 knockout mice [1]; fmr1 KO mice
  rearing activity: significantly reduced rearing activity
fmr1 knockout mice [1]; fmr1 knockout mice, 2nd and 3rd trials
  movement in the open field: significantly reduce movement
fmr1 knockout mice [1]; wild-type mice
  rearing activity: no effect
MeCP2-/y mice
  increase in life expectancy (0.5 probability survival rate): ~50%
fmr1 knockout mice [2]; fmr1 KO
  marble burying behavior: normalized marble burying behavior
  nest building behavior: increased both marble burying and nest building behaviors
fmr1 knockout mice [2]; wild-type mice
  marble burying: no significant effect
[3]
  dendritic spine density (mean±SD): 0.33±0.07 spines per micrometer
